Tests used:
[1] = tested on: wild type (ATCC 90027) C. albicans; test: Modified disk diffusion assay, wild type C. albicans; assay type: cell-based, Candida albicans; details: wild type strain, loads of 1-5 μg/disk
[2] = tested on: amphotericin B resistant C. albicans (ATCC 200955); test: Modified disk diffusion assay, amphotericin B resistant C. albicans; assay type: cell-based; details: amphotericin B-resistant strain, loads of 1-5 μg/disk

Theopapuamide A [compound 7]
antifungal activity (in words) [1]: activity | antifungal activity (in words) [2]: activity
